Results on 1 compound are retold here after PMC8576102, “Structure–Activity Relationship of Novel Second-Generation Synthetic Cathinones: Mechanism of Action, Locomotion, Reward, and Immediate-Early Genes” (Frontiers in Pharmacology, 2021).

The test system of one assay is Swiss CD-1 mice. Description: Conditioned place preference (CPP). In kind it is in vivo. The following applies: 30 mg/kg i.p. Here is the method:
For the behavioral and gene expression experiments, male Swiss CD-1 mice (Janvier, Le Genest, France) weighing 30–35 g (6–8 weeks old) were used. With the aim of reducing the number of animals and minimize their suffering, animal procedures were performed in accordance with the ARRIVE guidelines. All animal care and experimental protocols in this study were in accordance with the guidelines of the European Community Council (2010/63/EU), as amended by Regulation (EU) 2019/1010, and approved by the Animal Ethics Committee of the University of Barcelona under the supervision of the Autonomous Government of Catalonia. The animals were housed in temperature-controlled conditions (22 ± 1°C) under a 12 h light/dark cycle and had free access to food and drinking water. During the study, the animals were supervised immediately after injection and during the behavioral procedure as well as 24 h after injection, and different parameters were visually evaluated for humane endpoints, such as self-mutilations, strange vocalizations, abnormal posture, or a greater weight loss than 20%. The sample size was determined using GPower software. […]
The rewarding effects were determined using a place conditioning paradigm as described by [Duart-Castells et al. (2019]). […] The time spent in each compartment was recorded (Smart 3.0, Panlab, Spain). […]

The next assay concerns the target T1, hDAT (Homo sapiens, UniProt Q01959).
T1 construct: YFP (yellow-fluorescent protein); expressed in transfected cells
Description: Uptake inhibition assay, [3H]MPP+ uptake in transfected HEK293 cells. In kind it is cell-based. As to the method: Human embryonic kidney (HEK293) cells stably expressing the yellow-fluorescent protein (YFP)-tagged version of the human isoforms of SERT (abbreviated as SERT) and DAT (abbreviated as DAT) were used for the uptake inhibition and release assays. The generation and maintenance of stable, monoclonal cell lines expressing these transporters was conducted as described by ([Mayer F. P. et al., 2016]; [Mayer et al., 2016 FP.]). HEK293 cells were maintained in DMEM supplemented with heat-inactivated 10% FBS, 100 µg/100 ml streptomycin, 100 U/ml penicillin, and Geneticin (G418; 50 μg/ml) and cultured in a humidified atmosphere (5% CO2, 37°C). The cells were seeded at a density of 0.36 million cells/well onto 96-well plates previously coated (24 h) with poly-D-lysine (PDL).
The medium was removed and immediately replaced with 200 µL/well of Krebs-HEPES buffer (KHB; 10 mM HEPES, 120 mM NaCl, 3 mM KCl, 2 mM CaCl2·2H2O, 2 mM MgCl2·6H2O, 20 mM D-glucose; pH 7.3). The cells were pre-incubated with different concentrations of the drug in KHB at a final volume of 50 µL/well for 5 min (DAT, SERT). Immediately after, the pre-incubation solution was removed and the cells were incubated with the tritiated substrates, 0.02 µM [^3H]MPP^+ for the DAT (3 min) and 0.1 µM [^3H]5-HT for the SERT (1 min), along with different concentrations of the drug in KHB. Finally, the [^3H]substrate was removed and the cells were washed with ice-cold KHB followed by the addition of sodium dodecyl sulfate (SDS) 1%. The lysate was then added to the scintillation fluid, and the radioactivity was quantified with a beta-scintillation counter (Perkin Elmer, Waltham, MA, United States).
The uptake in the absence of the drug compound was normalized to 100%, being the percentage of the uptake in the presence of different concentrations of the drug expressed as a percentage thereof. 3–4 independent experiments were performed in duplicate.
Data were expressed as mean ± SEM. Competition curves were plotted and fitted by non-linear regression, and data were best fitted to a sigmoidal dose-response curve to obtain an IC50 value. 1/DAT IC50: 1/SERT IC50 was used to calculate transporter ratios. Data from batch release assays were statistically analyzed with a mixed-effects model, employing Šidák’s correction for multiple comparisons. One-way/two-way ANOVA or two-way ANOVA of repeated measures, followed by Tukey’s or Dunnett’s post hoc test, was also used when appropriate. The α error probability was set at 0.05 (p < 0.05). The size group for each experiment and statistical results are shown in the corresponding legend of figures. Statistical calculations were performed using GraphPad Prism (GraphPad Software, San Diego, CA, United States).

A further assay has as its system c-fos mRNA. Briefly: c-fos mRNA expression (qPCR) in ventral and dorsal striatum. The following applies: 10 mg/kg i.p., 30 min after injection, vs saline. The format is in vivo, mice. As to the method: (§1) Mice were injected with an acute dose of 10 mg/kg i.p. of the corresponding synthetic cathinone or saline solution. The dose was chosen according to the behavioral results obtained since it caused significant response in both CPP and HLA tests in all compounds tested. 30 min or 2 h post-administration, mice were sacrificed by cervical dislocation and the VS, DS, and mPFC were dissected out ([Paxinos and Franklin, 2004]) using a mouse brain acrylic matrix (Agnthos, Sweden) and stored at -80°C until use. Total RNA was isolated following a standard TRIsure reagent–chloroform extraction protocol ([Duart-Castells et al., 2019]).
Reverse transcription polymerase chain reaction (RT-PCR) was carried out to obtain complementary DNA (cDNA) by using the High Capacity cDNA Reverse Transcription Kit (Applied Biosystems) and the Veriti thermal cycler (Applied Biosystems, Foster, CA, United States). Synthesis of cDNA was obtained by mixing 1,000 ng of total RNA with the corresponding volumes of each kit reagent to a final volume of 20 μL. Quantitative real-time polymerase chain reaction (qPCR) was performed by using the StepOnePlus^TM Real-Time PCR System and TaqMan PCR Master Mix (Applied Biosystems, Foster, CA, United States). 25 ng of cDNA was loaded in a final volume of 20 μL containing sequence-specific primers and TaqMan probes (Mm01204954_g1 for Arc, Mm04230607_s1 for bdnf, Mm00487425_m1 for c-fos, and Mm00607939_s1 for β-actin). Each sample was tested in duplicate. qPCR conditions were 2 min at 50°C, 10 min at 95°C, 40 cycles/15 s at 95°C, and 60 s at 60°C. Changes in gene expression were defined by using the comparative Ct method for each experimental sample. Gene expression was normalized by using the mean of Ct values of the housekeeping gene β-actin.
In general terms: Real-time PCR tracks product formation cycle by cycle.

In another assay the test system is bdnf mRNA. Description: bdnf mRNA expression (qPCR) in medial prefrontal cortex. The format is in vivo, mice. The following applies: 10 mg/kg i.p., 120 min after administration, vs saline. Here is the method: as §1
Reverse transcription polymerase chain reaction (RT-PCR) was carried out to obtain complementary DNA (cDNA) by using the High Capacity cDNA Reverse Transcription Kit (Applied Biosystems) and the Veriti thermal cycler (Applied Biosystems, Foster, CA, United States). Synthesis of cDNA was obtained by mixing 1,000 ng of total RNA with the corresponding volumes of each kit reagent to a final volume of 20 μL. Quantitative real-time polymerase chain reaction (qPCR) was performed by using the StepOnePlus^TM Real-Time PCR System and TaqMan PCR Master Mix (Applied Biosystems, Foster, CA, United States). […]

T1 sequence (Q01959 whole entry): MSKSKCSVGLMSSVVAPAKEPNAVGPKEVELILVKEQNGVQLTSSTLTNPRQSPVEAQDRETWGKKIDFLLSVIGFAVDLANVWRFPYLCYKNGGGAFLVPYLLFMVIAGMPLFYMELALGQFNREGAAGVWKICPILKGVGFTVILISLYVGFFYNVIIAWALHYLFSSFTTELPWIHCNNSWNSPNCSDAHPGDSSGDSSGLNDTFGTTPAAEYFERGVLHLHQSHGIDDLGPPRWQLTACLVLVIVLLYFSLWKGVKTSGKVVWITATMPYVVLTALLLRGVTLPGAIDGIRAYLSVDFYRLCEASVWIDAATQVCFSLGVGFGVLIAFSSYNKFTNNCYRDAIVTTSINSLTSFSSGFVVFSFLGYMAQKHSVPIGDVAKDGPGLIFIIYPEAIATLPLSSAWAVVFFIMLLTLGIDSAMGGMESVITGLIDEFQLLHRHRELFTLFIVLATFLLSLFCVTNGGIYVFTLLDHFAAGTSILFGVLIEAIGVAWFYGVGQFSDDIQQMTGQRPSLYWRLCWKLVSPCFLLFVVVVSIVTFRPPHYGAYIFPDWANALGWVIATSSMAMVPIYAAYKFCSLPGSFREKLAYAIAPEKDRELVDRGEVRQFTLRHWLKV

Regarding `CCCC(NCC)C(=O)c1ccc2c(c1)OCO2` (stereo not drawn) [N-Ethyl-pentylone, 3’,4’-methylendioxy-α-ethylaminovalerophenone], the “CPP rewarding effects vs saline at the highest dose” value with Swiss CD-1 mice was “significant increase”. Moreover, the IC50 (commonly the point on the concentration scale where inhibition reaches its midpoint) at hDAT worked out at 130 ± 10 nM. On hDAT (1/DAT IC50: 1/SERT IC50), the hDAT/hSERT ratio is on record as 51. Besides, in the assay on c-fos mRNA, the “c-fos expression in the DS, 30 min” value was “increased” and the “c-fos expression in the VS, 30 min” value is listed as “significant overexpression”. Besides, the “bdnf mRNA levels in the mPFC, 120 min” value in the assay with bdnf mRNA is listed as “significant overexpression”.
